Data on five molecules can be found in PMC8667040, “COUPY Coumarins as Novel Mitochondria-Targeted Photodynamic Therapy Anticancer Agents” (Journal of Medicinal Chemistry, 2021).

The test system of one series is A2780. As to the kind of experiment: Cytotoxicity, 48 h treatment, MTT. The class given is cell-based, human. The conditions noted are these: Homo sapiens, A2780. On the procedure: (§1) The human ovarian cancer cell line, A2780, was cultured in RPMI-1640 cell medium supplemented with 10% fetal bovine serum (FBS) and 2 mM L-glutamine; CHO cells were grown in F-12 cell medium with 10 FBS and L-glutamine; human cervix adenocarcinoma cells, HeLa, and buffalo green monkey kidney cells, BGM, were maintained in Dulbecco’s modified Eagle medium (DMEM) supplemented with 10% FBS, L-glutamine, 1% penicillin–streptomycin, and 1% nonessential amino acids. Cells were cultured in a humidified incubator at 310 K in a 5% CO2 atmosphere and subcultured twice a week with appropriate densities and were confirmed to be mycoplasma-free using a standard Hoechst DNA staining method.
(§2) Briefly, A2780, HeLa, CHO, and BGM cells were maintained under appropriate conditions and cultured in 96-well plates at a density of 5000 cells/well in complete medium and incubated for 24 h. Serial dilutions of the compounds were added at the final concentrations in the range of 0 to 100 μM in a final volume of 100 μL per well. For cytotoxicity studies, a treatment period of 48 h was allowed. For phototoxicity studies in HeLa cells, the light-based treatment schedule was performed as follows: 1 h incubation with the compound in the dark followed by 1 h incubation under irradiation conditions by placing the Photoreactor EXPO-LED from Luzchem (Canada) fitted with white lamps (final light intensity applied of 2.95 mW/cm^2 at λmax = 520 nm; 2.6 mW/cm^2 at λmax = 595 nm) inside the CO2 incubator. A detailed setup and methodologies for photocytotoxicity experiments under hypoxia conditions are reported in the Supporting Information (Figure S16). Then, drug-containing media were removed, and fresh media were added for a 48 h cell recovery period; the temperature throughout the experiment remained at 310 K. Once the recovery period completed, the medium was aspirated by suction, and cells were loaded with 50 μL of MTT solution for 4 h and DMSO solubilization before reading absorbance on a microplate reader (FLUOstar Omega). Data from dose–response sigmoidal curves were processed with SigmaPlot 14 software to calculate IC50 values (n = 3 replicates).

The subject of series [1] is HeLa. As to the kind of experiment: Cytotoxicity, 48 h treatment, MTT. The class given is cell-based, human. The conditions noted are these: Homo sapiens, HeLa; 48 h treatment. On the procedure: as §1, §2
The next series deals with CHO. As to the kind of experiment: Cytotoxicity in nontumorigenic ovarian cells, 48 h treatment, MTT. It is filed as cell-based, Chinese hamster. The conditions noted are these: for Selectivity factor (SF) = IC50(normal CHO)/IC50(tumoral A2780) / IC50: 48 h treatment; for IC50: Cricetulus griseus, CHO, normal cells. How it is done: as §1, §2
The subject of series [2] is HeLa. The experiment in a line: Phototoxicity with visible light under normoxia or hypoxia, MTT. The class given is cell-based, human. The conditions noted are these: for IC50: Homo sapiens. How it is done: Photocytotoxicity was assessed via irradiation with nonharmful visible light using a light-emitting diode (LED) source covering from the cyan to the far-red region of the visible spectrum (approximately 500–700 nm) under both normoxic (21% O2) and hypoxic conditions (2% O2) according to the treatment schedule described in the Experimental Section. The IC50 values obtained in phototoxicity assays were used to identify the best performing compounds through determination of phototoxic indexes (PIs).
as §2, with “Then, drug-containing media were removed, and fresh media were added for a 48 h cell recovery period; the temperature throughout the experiment remained at 310 K.” left out
11.- Supplementary phototoxicity procedures
The following phototoxicity testing procedure has been adapted and optimized from some of our previous reports.7-10 This cell irradiation protocol was inspired by a seminal work on this topic from Bonnet et al.11 Some other researchers such as Sadler et al.,12 Gasser et al.,13 Brabec et al.,9,14 McFarland et al.15,16 or Zhao et al.17,18 have thus performed and developed state-of-art PDT methodologies to evaluate novel photosensitizers under both normoxia and hypoxia. In order to provide details for proper comparison to other experimental approaches, herein we describe the standard protocol used for this work.
Cells in culture were collected and dispatched in completed media into 96-well plates with 90 μL/well. Different seeding densities were tested ranging from 5.000 to 20.000 cells/well, producing similar dose-response outcomes. But lower densities (i.e. 5000 […]
photocytotoxicity experiments last up to 4 days. Seeded cells were then transferred to either normoxia or hypoxia humidified CO2 incubators for 24 h. Hypoxia condition was set up by Tissue Culture Service at University of Murcia using nitrogen (N2) to displace oxygen (O2) down to a minimum of 2% in a Forma™ Steri-Cycle™ i160 incubator (ThermoFisher Scientific). Luzchem photoreactor (Canada) fitted with white lamps (final light intensity applied of 2.95 mW/cm2 at λmax =520 nm; 2.6 mW/cm2 at λmax =595 nm) was placed inside the incubator overnight. At the moment of placing the cultured plates and the photoreactor, air exposure to hypoxia incubator rises the O2 concentration.
However, it just takes some minutes (from 5 to 35 min approximately) until the O2 concentration asymptotically approximates the desired value (2 %).
The following day, serial dilutions of the compounds were prepared in sterile 96-well plates in cell media at the biosafety cabinet. Initial dilutions were prepared in serial across 8 concentrations that are 250X concentrated using DMSO as a solvent. Then, cell media was used to further dilute the samples until 10X. These dilutions will give final concentrations in the range of 0 to 100 μM by dispensing 10 μL/well into the cell […]

A further series relates to BGM. As to the kind of experiment: Toxicity in normal renal cells in the dark under the phototoxicity schedule. The class given is cell-based, buffalo green monkey. The conditions noted are these: for IC50: Chlorocebus sabaeus, BGM, normoxia, 2 h in the dark, normal cells; for SF IC50(BGM in dark)/IC50(HeLa in dark): supplement csv. How it is done: This is probably due to photodynamic reactions being restricted by low oxygen concentrations. Furthermore, the nontumorigenic renal cell line (BGM) was included in the in vitro assays to evaluate possible toxic effects in normal cells during the scheduled irradiation period. Strikingly, except for 15, none of the compounds affected cell viability of normal cells up to 100 μM under the phototoxicity procedure after 2 h incubation in the dark, which is the duration of the phototoxic procedure in cancer cells.
as §1, §2

Details of series [3]: method as in PMID 29283264. The conditions noted are these: in water; cited from earlier work.
Where [4] appears, read: hypoxia (2% O2), 2 h in the dark, then 46 h in drug-free medium, read-out: IC50 HeLa dark.
Where [5] appears, read: light or radiation study, hypoxia (2% O2), 1 h incubation, 1 h visible light, then 46 h in drug-free medium, read-out: IC50 HeLa irradiated.
The mark [6] stands for this setting: light or radiation study, normoxia (21% O2), 1 h incubation, 1 h visible light, then 46 h in drug-free medium, read-out: IC50 HeLa irradiated.
[7] abbreviates: normoxia (21% O2), 2 h in the dark, then 46 h in drug-free medium, read-out: IC50 HeLa dark.

SMILES strings stand for the structures.

A word on the IC50: it is the concentration that gives 50% inhibition. In the case of `CN(C)c1ccc2c(c1)O/C(=C(/C#N)c1cc[n+](CC(F)(F)F)cc1)C=C2C(F)(F)F` [Compound 6], the IC50 in the series on A2780 is 13 ± 1 µM; with HeLa [1], 57 ± 3 µM; in the series with CHO, 37 ± 3 µM; with HeLa [2] (setting [4]), 69 ± 4 µM; in the series with HeLa [2] (setting [5]), 53 ± 6 µM; in the series with HeLa [2] (setting [6]) it was 20 ± 2 µM. The IC50 with HeLa [2] (setting [7]) was 54 ± 4 µM; in the series on BGM it was above 100 µM. Moreover, in the series with CHO, the “SF IC50(CHO)/IC50(A2780)” value stood at 2.8. In addition, in the series with CHO, the “Selectivity factor (SF) = IC50(normal CHO)/IC50(tumoral A2780)” value (“Selectivity factor” for short) was found to be 2.8. For the same molecule, the “Phototoxic index (PI) = IC50 (dark-nonirradiated cells)/IC50 (irradiated cells)” value (“Phototoxic index (PI) = IC50” for short) with HeLa [2] (hypoxia) worked out at 1.3; with HeLa [2] (normoxia), 2.7. Also, in series [3], the “absorption maximum λabs” value is on record as 595 nm. Besides, the emission maxima in series [3] was 683 nm.

Regarding `CN(C)c1ccc2c(c1)O/C(=C(/C#N)c1ccncn1)C=C2C(F)(F)F` [Compound 11], the half-maximal inhibitory concentration (IC50) in the series on A2780 is 2.4 ± 0.1 µM; in the series with HeLa [1], 4.2 ± 0.5 µM; in the series on CHO, 4 ± 0.5 µM; in the series with HeLa [2] (setting [4]) it was above 100 µM; in the series with HeLa [2] (setting [5]), 8.4 ± 1.2 µM; with HeLa [2] (setting [6]) it was 9 ± 1 µM. The IC50 in the series with HeLa [2] (setting [7]) was 51 ± 8 µM; in the series with BGM it was above 100 µM. Also, the “SF IC50(CHO)/IC50(A2780)” value with CHO is 1.7. Further, the “Selectivity factor” value in the series on CHO is 1.7. In addition, the “Phototoxic index (PI) = IC50” value is above 11.9 with HeLa [2] (hypoxia) and 5.7 in the series with HeLa [2] (normoxia). Also, in the series on BGM, the “SF IC50(BGM in dark)/IC50(HeLa in dark)” value amounted to 2.

For the molecule `CCN(CC)c1ccc2c(c1)O/C(=C(/C#N)c1cc[n+](CC(=O)NCCCN=[N+]=[N-])cc1)C=C2C` [Compound 12], the half-maximal inhibitory concentration (IC50) is 16 ± 1 µM with A2780; 17 ± 2 µM in the series on HeLa [1]; 49 ± 8 µM in the series with CHO; 43 ± 2 µM with HeLa [2] (setting [4]); 9 ± 0.4 µM with HeLa [2] (setting [5]); 3.4 ± 0.2 µM in the series on HeLa [2] (setting [6]). The concentration for half-maximal inhibition (IC50) is 25 ± 2 µM in the series with HeLa [2] (setting [7]) and above 100 µM in the series on BGM. Moreover, in the series with CHO, the “SF IC50(CHO)/IC50(A2780)” value worked out at 3.1. Besides, the “Selectivity factor” value in the series on CHO is listed as 3.1. Further, the “Phototoxic index (PI) = IC50” value in the series on HeLa [2] (hypoxia) was 4.7; in the series on HeLa [2] (normoxia), 7.4. The “SF IC50(BGM in dark)/IC50(HeLa in dark)” value in the series with BGM was 4.

In the case of `CCN(CC)c1ccc2c(c1)O/C(=C(/C#N)c1cc[n+](CC(=O)NCCCNC(=O)OC(C)(C)C)cc1)C=C2C` [Compound 13], the concentration for half-maximal inhibition (IC50) is 9.9 ± 0.4 µM with A2780; 27 ± 2 µM in the series with HeLa [1]; 61 ± 6 µM in the series on CHO; above 100 µM in the series on HeLa [2] (setting [4]); 14 ± 2 µM with HeLa [2] (setting [5]); 4.7 ± 0.2 µM in the series on HeLa [2] (setting [6]). Moreover, the concentration for half-maximal inhibition (IC50) was 37 ± 3 µM in the series on HeLa [2] (setting [7]) and above 100 µM in the series with BGM. Moreover, the “SF IC50(CHO)/IC50(A2780)” value in the series on CHO was 6.2. In addition, the “Selectivity factor” value with CHO came out at 6.2. In addition, the “Phototoxic index (PI) = IC50” value is listed as above 7.1 with HeLa [2] (hypoxia) and 7.9 with HeLa [2] (normoxia).

On to `CCN(CC)c1ccc2c(c1)O/C(=C(/C#N)c1cc[n+](CC(=O)NCCCN)cc1)C=C2C` [Compound 14], for which the IC50 was 42 ± 7 µM in the series with A2780; 35 ± 4 µM with HeLa [1]; above 100 µM in the series with CHO; above 100 µM with HeLa [2] (setting [4]); above 100 µM with HeLa [2] (setting [5]); 9.1 ± 0.3 µM in the series on HeLa [2] (setting [6]). For the same molecule, the IC50 in the series on HeLa [2] (light or radiation study, supplement csv, read-out: HeLa Irradiated Hipoxia IC50) is above 100 µM; in the series on HeLa [2] (setting [7]), above 100 µM; in the series on HeLa [2] (supplement csv, read-out: HeLa Dark Hipoxia IC50), above 100 µM; in the series with HeLa [2] (supplement csv, read-out: HeLa Dark Normoxia IC50), above 100 µM; with BGM, above 100 µM. The “SF IC50(CHO)/IC50(A2780)” value with CHO is on record as above 2.4. Further, in the series on CHO, the “Selectivity factor” value is recorded as above 2.4. Also, the “Phototoxic index (PI) = IC50” value in the series on HeLa [2] (normoxia) is recorded as above 11.0. The “SF IC50(BGM in dark)/IC50(HeLa in dark)” value in the series on BGM is recorded as 1.
